The assay deals with human PD-L1 / Human PD-1 (Homo sapiens (Human), UniProt Q9NZQ7). Nature of the assay: Enzyme-Linked Immunosorbent Assay (ELISA), PD-1/PD-L1 binding. To be noted: plate-coated human PD-L1, biotinylated human PD-1, absorbance at 450 nm. The method, then: 96 Well plates were coated with 1 μg/mL of human PD-L1 (obtained from R&D) in PBS overnight at 4° C. The wells were then blocked with 2% BSA in PBS (W/V) with 0.05% TWEEN-20 for 1 hour at 37° C. The plates were washed 3 times with PBS/0.05% TWEEN-20 and the compounds were serial diluted (1:5) in dilution medium and added to the ELISA plates. Human PD-1 and biotin 0.3 μg/mL (ACRO Biosystems) were added and incubated for 1 hour at 37° C. then washed 3 times with PBS/0.05% TWEEN-20. A second block was performed with 2% BSA in PBS (W/V)/0.05% TWEEN-20 for 10 min at 37° C. and was washed 3 times with PBS/0.05% TWEEN-20. Streptavidin—HRP was added for 1 hour at 37° C. then washed 3 times with PBS/0.05% TWEEN-20. TMB substrate was added and reacted for 20 min at 37° C. A stop solution (2 N aqueous H2SO4) was added. The absorbance was read at 450 nm using a micro-plate spectrophotometer.
Chain of human PD-L1 / Human PD-1 (Q9NZQ7 19-239): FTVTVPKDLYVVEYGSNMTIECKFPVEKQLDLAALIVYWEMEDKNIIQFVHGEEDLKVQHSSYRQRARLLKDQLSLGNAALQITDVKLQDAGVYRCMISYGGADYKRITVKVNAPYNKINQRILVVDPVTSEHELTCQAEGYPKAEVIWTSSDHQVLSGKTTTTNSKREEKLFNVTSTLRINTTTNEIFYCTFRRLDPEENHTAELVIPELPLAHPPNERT
Compounds in Table 1 were prepared by methods as described in the Examples and evaluated according to the assay above.
For orientation: An ELISA detects its analyte on a solid surface through an enzyme-linked reagent.

The results in this text go back to patent US11059834B2, “Macrocyclic immunomodulators” (CHEMOCENTRYX, INC., priority 2017, dated 2021).

The structures appear in SMILES notation.

`Cc1c(COc2cc3c(cc2Cl)CO[C@H](C(=O)O)CCNC(=O)c2cncc(c2)CN3)cccc1-c1ccccc1` [Compound 1.009]: the IC50 was in the range of 0.5 to 20 µM.

Usually IC50 stands for the concentration that gives 50% inhibition. A high value points to weaker potency in that assay.
